# According to US20120009124A1, “USE OF BUFFERS FOR RADIONUCLIDE COMPLEXATION” (GUERBET, priority 2009, published 2012):
# Like-named read-outs stand apart in the source and are kept apart here. Where a SMILES comes first, the peptide text is derived from it. [ ]: non-standard residue; d: D form.
# How the values were obtained:
# CXCR4 = CXCR4 (Homo sapiens, UniProt P61073); experiment: IC50 of cyclic peptides for targeting CXCR4; type: binding; details: peptide biovectors for targeting CXCR4
# [1] = Description: It is also possible to combine several buffers in combination (buffer mixtures) in particular so as to optimize the buffering capacity ranges and the choice of the chelates and of the biovectors, it being specified that not all chelates necessarily have the same complexation, depending on the buffer under consideration.
# Chain of CXCR4 (P61073 whole entry, species assumed): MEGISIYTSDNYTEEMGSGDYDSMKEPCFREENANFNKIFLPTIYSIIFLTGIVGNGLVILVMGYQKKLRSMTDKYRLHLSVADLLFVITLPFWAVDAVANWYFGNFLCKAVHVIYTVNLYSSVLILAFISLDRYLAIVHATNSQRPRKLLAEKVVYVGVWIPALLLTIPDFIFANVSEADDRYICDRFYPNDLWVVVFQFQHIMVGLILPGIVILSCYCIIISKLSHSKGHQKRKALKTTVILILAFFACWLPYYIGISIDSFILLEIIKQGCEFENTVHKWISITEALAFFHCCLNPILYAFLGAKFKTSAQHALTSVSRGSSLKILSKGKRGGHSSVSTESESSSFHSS
IC50 (CXCR4) [nM],Compound,buffering capacity (pKa value +/-1) [1],further results
18,N=C(N)NCCC[C@@H]1NC(=O)[C@H](CCCNC(=N)N)NC(=O)[C@@H](Cc2ccc(O)cc2)NC(=O)CNC(=O)[C@H](Cc2nc3ccccc3s2)NC1=O [Bth],–,–
13,N=C(N)NCCC[C@@H]1NC(=O)[C@H](CCCNC(=N)N)NC(=O)[C@@H](Cc2ccc(O)cc2)NC(=O)CNC(=O)[C@H](Cc2c[nH]c3ccccc23)NC1=O [Trp] (cyclo([dY]RRWG)),–,–

# Second part, the compound before the results:
Compound,IC50 (CXCR4) [nM],buffering capacity (pKa value +/-1) [1],further results
O=C(O)O [carbonate],–,–,buffering capacity (pKa value +/-1) ([1]; pH range): 5.35-11.33
O=C(O)C(O)C(O)C(=O)O (centres unmarked) [tartrate],–,2.04-5.37,–
phosphate,–,1.12-13.67,–
